Data as given in PubChem BioAssay (NCI).
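The compound was tested at five concentrations on cells cultured in 96-well plates, with a 48-hour exposure period. TGI is the concentration that stops growth completely.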

What was measured:
Experiment in all cases: DTP human tumour cell line panel, 48 h
[1] = system: OVCAR-8 ovarian
[2] = system: A549 NSCLC
[3] = system: MCF7 breast
[4] = system: SNB-19 CNS
[5] = system: HS 578T breast
[6] = system: HL-60(TB) leukemia
[7] = system: T-47D breast
[8] = system: SN12C renal
[9] = system: PC-3 prostate
[10] = system: RPMI-8226 leukemia
[11] = system: UACC-257 melanoma
[12] = system: COLO 205 colon
[13] = system: M14 melanoma
[14] = system: SK-OV-3 ovarian
[15] = system: OVCAR-3 ovarian
[16] = system: HOP-92 NSCLC
[17] = system: SR leukemia
[18] = system: NCI/ADR-RES ovarian
[19] = system: 786-0 renal
[20] = system: LOX IMVI melanoma
[21] = system: DU-145 prostate
[22] = system: RXF 393 renal
[23] = system: A498 renal
[24] = system: NCI-H460 lung
[25] = system: ACHN renal
[26] = system: NCI-H23 lung
[27] = system: SK-MEL-28 melanoma
[28] = system: MDA-MB-231 breast
[29] = system: SW-620 colon
[30] = system: OVCAR-4 ovarian
[31] = system: SF-295 CNS
[32] = system: CAKI-1 renal
[33] = system: EKVX NSCLC
[34] = system: HOP-62 NSCLC
[35] = system: UACC-62 melanoma
[36] = system: IGROV1 ovarian
[37] = system: HT29 colon
[38] = system: NCI-H522 lung
[39] = system: KM12 colon
[40] = system: TK-10 renal
[41] = system: SNB-75 CNS
[42] = system: SK-MEL-5 melanoma
[43] = system: U251 CNS
[44] = system: BT-549 breast
[45] = system: MDA-MB-435
[46] = system: OVCAR-5 ovarian
[47] = system: MDA-N
[48] = system: CCRF-CEM leukemia
[49] = system: SK-MEL-2 melanoma
[50] = system: HCT-15 colon
[51] = system: HCT-116 colon
[52] = system: MALME-3M melanoma
[53] = system: SF-268 CNS
[54] = system: NCI-H226 lung
[55] = system: K-562 leukemia
[56] = system: UO-31 renal
[57] = system: HCC-2998 colon
[58] = system: SF-539 CNS
[59] = system: MOLT-4 leukemia

Measured: TGI

CC(C)C(Nc1ncnc2nc[nH]c12)C(=O)O (stereo unspecified)
not listed: [57] | [58] | [59]
> 100 µM: all other assays above

O[C@@H]1C[C@H](Cl)c2c(Cl)sc(Cl)c21
not listed: [6] | [16] | [23] | [54]
> 100 µM: all other assays above
